{"source": "patent US9566290B2", "about": "“Boron-containing small molecules” (Anacor Pharmaceuticals, Inc., priority 2005, dated 2017)", "key": {"[1]": {"test_system": "S. cerevisiae C10 resistant mutants (CDC60 editing domain mutations)", "experiment": "MIC (NCCLS M27), spontaneous and EMS induced C10 resistant mutants", "assay_type": "cell-based, Saccharomyces cerevisiae", "conditions": "for MIC: Saccharomyces cerevisiae", "experimental": "The haploid Saccharomyces cerevisiae strain ATCC 201388 was used in the selection of C10 resistant mutants. Spontaneous and EMS-induced resistant mutants were isolated from YPD agar plates containing 4×, 8×, 16×MIC of C10. All minimal inhibitory concentrations (MIC) were determined using NCCLS protocol M27 with the exception of using YPD or synthetic defined media. All yeast and molecular genetic manipulations were essentially performed as described by Guthrie C., et al., Methods in Enzymology, 350: Part B, (2002).\n(§1) Resistant mutants appeared after 2 d incubation at 30° C. Frequency of resistance was determined by dividing the number of resistant mutants by the total number of cells plated as determined by plating dilutions of the overnight culture on YPD plates.\nA 2.5 mL of the overnight culture, which was grown in YPD media, was centrifuged at 700×g for 5 minutes. The cell pellet was resuspended in 10 mL 50 mM potassium phosphate buffer, pH 7.0. The cell suspension was centrifuged again and the cell pellet was resuspended in phosphate buffer to obtain a cell density of 5×10^7 cells/mL as determined by counting the cells using a Petroff Hausser Counting Chamber (Horsham, Pa. USA). The cell suspension was shaken with 300 μL of EMS (Alfa Aesar, Ward Hill, Mass., USA) for 30 min. at 30° C. The mutagenesis was stopped by adding 10% (w/v) sodium thiosulfate (Sigma-Aldrich, St. Louis, Mo., USA), and the cells were pelleted by centrifugation at 700×g for 5 min. and resuspended in 1 mL sterile H2O. This was repeated once more before the cells were plated on YPD agar plates containing 1.6 μg/mL of C10.\n(§2) The minimal inhibitory concentration (MIC) was essentially performed following the NCCLS guidelines outlined in the M27 protocol with the exception of using YPD or synthetic defined media (SDM)."}, "[2]": {"test_system": "S. cerevisiae diploid (mutant strain/ATCC200901)", "experiment": "MIC of diploids from yeast mating experiment", "assay_type": "cell-based, Saccharomyces cerevisiae", "experimental": "as §2\nThe haploid mutants derived from S. cerevisiae ATCC201388 were mixed with S. cerevisiae ATCC 200901, and were incubated on YPD agar plates at 30° C. for 4 h. The cell mixture was streaked out on synthetic defined media agar (BD, NJ USA) without the amino acids lysine and methionine, which are selective for diploids."}, "T. mentagrophytes": {"test_system": "T. mentagrophytes", "experiment": "Minimum fungicidal concentration (MFC)", "assay_type": "cell-based", "conditions": "Trichophyton mentagrophytes, lowest concentration that killed over 90%", "text": "(§3) (C10) is a novel compound in development for use as a topical antifungal treatment. The purpose of this study was to determine the minimum inhibitory concentration (MIC) for (C10) against 19 test strains of fungi including: Aspergillus fumigatus (A. fumigatus), Candida Albicans (C. albicans, both fluconazole sensitive and resistant strains), Candida glabrata (C. glabrata), Candida krusei (C. krusei), Cryptococcus neoformans (C. neoformans), Candida parapsilosis (C. parapsilosis), Candida tropicalis (C. tropicalis), Epidermophyton floccosum (E. floccosum), Fusarium solani (F. solani), Malassezia furfur (M. furfur), Malassezia pachydermatis (M. pachydermatis), Malassezia sympodialis (M. sympodialis), Microsporum audouinii (M. audouinii), Microsporum canis (M. canis), Microsporum gypseum (M. gypseum), Trichophyton mentagrophytes (T. mentagrophytes), Trichophyton rubrum (T. rubrum), Trichophyton tonsurans (T. tonsurans). Fungal growth was evaluated after exposure to different concentrations of (C10). In addition, the MIC for (C10) against T. rubrum in the presence of 5% keratin powder and the minimum fungicidal concentration (MFC) for (C10) against T. rubrum and T. mentagrophytes were also determined. Ciclopirox and/or terbinafine and/or fluconazole and/or itraconazole were used as comparators and tested in a similar manner. These studies were conducted at NAEJA Pharmaceutical, Inc. […]"}, "T. rubrum": {"test_system": "T. rubrum", "experiment": "Minimum fungicidal concentration (MFC)", "assay_type": "cell-based", "conditions": "Trichophyton rubrum, lowest concentration that killed over 90%", "text": "as §3"}, "[3]": {"test_system": "S. cerevisiae strain ATCC201388", "experiment": "Frequency of spontaneous resistance", "assay_type": "cell-based, Saccharomyces cerevisiae", "conditions": "spontaneous mutants, at 4×MIC", "experimental": "as §1"}, "[4]": {"experiment": "Water solubility (table of physicochemical properties)"}, "[5]": {"test_system": "Trichophyton rubrum (T. rubrum)", "experiment": "TurChub zone of inhibition assay through full thickness human nail", "assay_type": "cell-based", "conditions": "40 μL/cm^2 per day over five days", "experimental": "The aim of the current study was to assess and compare the perungual absorption of C10 in a simple vehicle using MedPharm's TurChub® model (see http://www.medpharm.co.uk; specificaly http://www.medpharm.co.uk/downloads/Skin%20and%20nail%2dec%202003.pdf viewed Feb. 14, 2006). in a full scale experiment. Six replicates involving C10 were conducted and Formulations Y (8% ciclopirox w/w in commercial lacquer) and Z (Loceryl, 5% amorolfine w/v in commercial lacquer) were used as the reference formulations.\nA dose of 40 μL/cm^2 of the test compound C10 in 50:50 propylene glycol:ethyl acetate was applied to a full thickness nail sample each day over a total duration of five days. Both the reference formulations were also applied at the same dose.\nPlacebo, test item C10 in vehicle and the reference formulations Y and Z were tested for their inhibition of Trichophyton rubrum (T. rubrum) growth after penetration through a full thickness human nail using a zone of inhibition measurement."}}, "note": "Several values for one entry are separate records, joined by “and”; a condition that tells them apart may be missing. Identical values can stand only once.", "data": [{"smiles": "OB1OCc2cc(F)ccc21", "note": "[C10, 5-fluorobenzo[c][1,2]oxaborol-1(3H)-ol]", "values": [{"measurement": "increase in resistance (MIC) of resistant mutants over wildtype", "setting": "[1]; 11 C10 resistant mutants", "value": "8-64 fold"}, {"measurement": "increased resistance over wildtype in the minimal inhibitory concentration test", "setting": "[1]; 23 C10 resistant mutants (Example 41)", "value": "8-64 fold"}, {"measurement": "MIC", "setting": "[1]; Table 1, mutant (A), CDC60 N415D", "value": 4, "unit": "µg/mL"}, {"measurement": "MIC", "setting": "[1]; Table 1, mutant (B), CDC60 R316I", "value": 16, "unit": "µg/mL"}, {"measurement": "MIC", "setting": "[1]; Table 1, mutant (C), CDC60 C326F", "value": 16, "unit": "µg/mL"}, {"measurement": "MIC", "setting": "[1]; Table 1, mutant (D), CDC60 G405V", "value": 32, "unit": "µg/mL"}, {"measurement": "MIC", "setting": "[1]; Table 1, mutant (E), CDC60 C326R", "value": 16, "unit": "µg/mL"}, {"measurement": "MIC", "setting": "[1]; Table 1, mutant (F), CDC60 D487G", "value": 32, "unit": "µg/mL"}, {"measurement": "MIC", "setting": "[1]; Table 1, mutant (G), CDC60 L315V", "value": 32, "unit": "µg/mL"}, {"measurement": "MIC", "setting": "[1]; Table 1, mutant (H), CDC60 T314M", "value": 32, "unit": "µg/mL"}, {"measurement": "MIC", "setting": "[1]; Table 1, mutant (I), CDC60 S416L", "value": 32, "unit": "µg/mL"}, {"measurement": "MIC", "setting": "[1]; Table 1, mutant (J), CDC60 D487N", "value": 32, "unit": "µg/mL"}, {"measurement": "MIC", "setting": "[1]; Table 1, mutant (K), CDC60 T319I", "value": 32, "unit": "µg/mL"}, {"measurement": "MIC", "setting": "[1]; Table 2, C10 resistant mutant (C)", "value": 16, "unit": "µg/mL"}, {"measurement": "MIC", "setting": "[1]; Table 2, C10 resistant mutant (G)", "value": 16, "unit": "µg/mL"}, {"measurement": "MIC", "setting": "[1]; Table 2, C10 resistant mutant (H)", "value": 16, "unit": "µg/mL"}, {"measurement": "MIC", "setting": "[2]; Saccharomyces cerevisiae, ATCC200901", "value": 32, "unit": "µg/mL"}, {"measurement": "MIC", "setting": "[2]; Saccharomyces cerevisiae, ATCC 200901 / ATCC 201388", "value": 0.5, "unit": "µg/mL"}, {"measurement": "MIC", "setting": "[2]; diploid (G)/ATCC200901", "value": 32, "unit": "µg/mL"}, {"measurement": "MIC", "setting": "[2]; diploid (H)/ATCC200901", "value": 32, "unit": "µg/mL"}, {"measurement": "MIC of diploids from C10 mutants versus diploid from parental strain", "setting": "[2]; three mutants mated with ATCC 200901", "value": 64, "unit": "fold"}, {"measurement": "MFC", "setting": "T. mentagrophytes", "value": 16, "unit": "µg/mL"}, {"measurement": "MFC", "setting": "T. rubrum", "value": 8, "unit": "µg/mL"}, {"measurement": "frequency of resistance", "setting": "[3]", "value": "1.2×10^−7"}, {"measurement": "solubility", "setting": "[4]", "value": "> 100", "unit": "µg/mL"}, {"measurement": "zone of inhibition, result in words", "setting": "[5]; full thickness nail", "value": "superior results vs. the commercial reference formulations Y and Z"}, {"measurement": "Zones of inhibition", "setting": "[5]; C10 10% w/v solution, second experiment (FIG. 7), six cells", "value": "74% and 86% and 100% and 82% and 84%"}]}]}
